{
  "source": "paper PMC9002841",
  "about": "“Characterization of Promising Cytotoxic Metabolites from Tabebuia guayacan Hemsl.: Computational Prediction and In Vitro Testing” (Plants, 2022)",
  "key": {"[1]": {"target": "T1, CDK2/CyclinA2 (Homo sapiens, UniProt P24941)", "T1 construct": "purchased #79599", "test": "In vitro CDK-2 inhibitory activity (Kinase-Glo MAX kinase assay)", "format": "biochemical", "conditions": "mean ± SD", "source_text": "(§1) The Assay Kits are designed to measure CDK2/CyclinA2 and VEGFR-2 (KDR) activities for screening and profiling applications, using Kinase-Glo® MAX as a detection reagent. The CDK-2 Assay Kit comes in a convenient 96-well format, with enough purified recombinant CDK2/CyclinA2 enzyme, CDK substrate peptide, ATP, and kinase assay buffer for 100 enzyme reactions, while the VEGFR-2 Assay Kit comes in a convenient 96-well format, with enough purified recombinant VEGFR-2 (KDR) enzyme, PTK substrate, ATP, and kinase assay buffer for 100 enzyme reactions. […] The CDK2/CyclinA2 and VEGFR-2 (KDR) activities at a single dose concentration of 10µM were performed, where the Kinase-Glo MAX luminescence kinase assay kit (Promega#V6071) was used. The compounds were diluted in 10% DMSO and 5 µL of the dilution was added to a 50 µL reaction so that the final concentration of DMSO was 1% in all of the reactions. All of the enzymatic reactions were conducted at 30 °C for 45 min. […] After the enzymatic reactions, 50 µL of Kinase-Glo® MAX Luminescence kinase assay solution was added to each reaction and the plates were incubated for 15 min at room temperature. Luminescence signal was measured using a Bio Tek Synergy 2 microplate reader.\n(§2) Data were analyzed using one-way analysis of variance (ANOVA) for multiple comparison between all compounds followed by Tukey–Kramer post-ANOVA test. […]"}, "[2]": {"target": "T2, VEGFR-2 (KDR) (Homo sapiens, UniProt P35968)", "T2 construct": "purchased #40325", "T2 sequence (P35968 20-1356)": "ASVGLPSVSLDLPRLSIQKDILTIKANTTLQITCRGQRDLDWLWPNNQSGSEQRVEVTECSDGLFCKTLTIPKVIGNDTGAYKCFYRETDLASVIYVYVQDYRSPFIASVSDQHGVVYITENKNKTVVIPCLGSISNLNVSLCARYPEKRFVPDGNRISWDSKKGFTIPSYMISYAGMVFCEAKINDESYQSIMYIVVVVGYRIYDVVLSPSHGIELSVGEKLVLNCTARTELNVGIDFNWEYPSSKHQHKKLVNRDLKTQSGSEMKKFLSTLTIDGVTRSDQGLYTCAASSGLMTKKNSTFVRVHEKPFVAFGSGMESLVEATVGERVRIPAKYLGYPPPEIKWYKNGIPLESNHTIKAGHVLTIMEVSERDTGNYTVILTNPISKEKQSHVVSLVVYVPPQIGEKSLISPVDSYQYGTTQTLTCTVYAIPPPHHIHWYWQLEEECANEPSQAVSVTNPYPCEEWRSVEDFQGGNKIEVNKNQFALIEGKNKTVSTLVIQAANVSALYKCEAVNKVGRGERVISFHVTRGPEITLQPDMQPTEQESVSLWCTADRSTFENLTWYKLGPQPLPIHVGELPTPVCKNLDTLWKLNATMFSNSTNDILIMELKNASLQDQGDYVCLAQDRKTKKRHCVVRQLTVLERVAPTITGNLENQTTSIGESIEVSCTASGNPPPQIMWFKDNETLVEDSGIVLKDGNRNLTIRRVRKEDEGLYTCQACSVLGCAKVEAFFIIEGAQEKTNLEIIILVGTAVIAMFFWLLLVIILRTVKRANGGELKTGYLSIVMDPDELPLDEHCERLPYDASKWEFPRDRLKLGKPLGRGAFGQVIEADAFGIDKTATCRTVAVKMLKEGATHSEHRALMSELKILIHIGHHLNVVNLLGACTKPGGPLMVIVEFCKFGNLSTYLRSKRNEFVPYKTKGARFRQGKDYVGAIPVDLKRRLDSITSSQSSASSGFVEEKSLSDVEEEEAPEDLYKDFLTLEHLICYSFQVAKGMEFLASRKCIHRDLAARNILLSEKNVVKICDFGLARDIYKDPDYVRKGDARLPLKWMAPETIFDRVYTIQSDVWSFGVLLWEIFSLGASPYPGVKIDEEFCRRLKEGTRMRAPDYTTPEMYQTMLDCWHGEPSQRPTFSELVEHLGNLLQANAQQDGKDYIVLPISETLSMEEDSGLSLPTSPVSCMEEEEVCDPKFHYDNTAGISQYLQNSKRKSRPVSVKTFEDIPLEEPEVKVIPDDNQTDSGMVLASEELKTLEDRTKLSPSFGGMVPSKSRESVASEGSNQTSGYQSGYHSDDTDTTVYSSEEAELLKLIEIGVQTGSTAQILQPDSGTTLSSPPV", "test": "In vitro VEGFR-2 inhibitory activity (Kinase-Glo MAX kinase assay)", "format": "biochemical", "conditions": "mean ± SD", "source_text": "as §1, §2"}, "[3]": {"target": "T3, CDK6/Cyclin D3 (Homo sapiens, UniProt Q00534)", "T3 construct": "purchased Promega V4489", "T3 sequence (Q00534 whole entry)": "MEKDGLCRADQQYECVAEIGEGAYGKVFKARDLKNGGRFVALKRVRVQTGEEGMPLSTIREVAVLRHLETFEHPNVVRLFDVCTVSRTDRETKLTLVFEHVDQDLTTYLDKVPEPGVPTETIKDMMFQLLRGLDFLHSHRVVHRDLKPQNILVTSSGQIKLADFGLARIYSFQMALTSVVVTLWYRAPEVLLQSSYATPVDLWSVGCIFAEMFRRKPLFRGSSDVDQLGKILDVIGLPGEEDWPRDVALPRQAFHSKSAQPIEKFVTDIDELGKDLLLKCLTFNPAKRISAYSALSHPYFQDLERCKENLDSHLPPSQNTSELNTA", "T3 sequence (P30281 whole entry partner)": "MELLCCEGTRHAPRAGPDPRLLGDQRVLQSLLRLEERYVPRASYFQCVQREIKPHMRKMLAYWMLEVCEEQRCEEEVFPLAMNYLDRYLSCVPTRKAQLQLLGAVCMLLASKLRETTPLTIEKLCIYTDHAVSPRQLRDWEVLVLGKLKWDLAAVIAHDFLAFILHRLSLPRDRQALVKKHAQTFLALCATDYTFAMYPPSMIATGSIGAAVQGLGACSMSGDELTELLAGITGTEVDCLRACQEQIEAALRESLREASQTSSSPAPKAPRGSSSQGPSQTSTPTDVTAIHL", "test": "In vitro CDK-6 inhibitory activity (ADP-Glo kinase assay)", "format": "biochemical", "conditions": "mean ± SD", "protocol": "Data were analyzed using one-way analysis of variance (ANOVA) for multiple comparison between all compounds followed by Tukey–Kramer post-ANOVA test. The differences were considered statistically significant at p < 0.05."}, "[4]": {"test_system": "topoisomerase-1", "conditions": "cited from earlier work"}},
  "data": [
    {"compound": "CC[C@H](CC[C@@H](C)[C@H]1CC[C@H]2[C@@H]3CC=C4C[C@@H](O)CC[C@]4(C)[C@H]3CC[C@]12C)C(C)C", "note": "[Compound 1, β-sitosterol]", "values": [
      {"measurement": "IC50", "setting": "[1]", "value": 581, "unit": "nM"}
    ]},
    {"compound": "O=c1c(OC2OCC(O)C(O)C2O)c(-c2ccc(O)c(O)c2)oc2cc(O)cc(O)c12", "note": "(stereo not drawn) [Compound 10, quercetin 3-O-β-xyloside]", "values": [
      {"measurement": "IC50", "setting": "[2]", "value": 193, "unit": "nM"},
      {"measurement": "IC50", "setting": "[3]", "value": 355, "unit": "nM"}
    ]},
    {"compound": "O=c1cc(-c2ccc(O)c(O)c2)oc2cc(OC3O[C@@H](CO)[C@H](O)[C@@H](O)[C@@H]3O)cc(O)c12", "note": "(stereo partly drawn) [Compound 16, luteolin-7-O-β-glucoside]", "values": [
      {"measurement": "inhibitory activity against topoisomerase-1", "setting": "[4]", "value": "especially poisonous"}
    ]},
    {"compound": "C[C@H]1[C@H](C)CC[C@]2(C(=O)O)CC[C@]3(C)C(=CC[C@@H]4[C@@]5(C)C[C@@H](O)[C@H](O)C(C)(C)[C@@H]5CC[C@]43C)[C@H]12", "note": "[Compound 3, corosolic acid]", "values": [
      {"measurement": "IC50", "setting": "[1]", "value": 239, "unit": "nM"}
    ]}
  ]
}
